Data from ChEMBL document CHEMBL4414548 (J Med Chem, 2019).

What was measured:
[1] = Terminal drug concentration in CD40-induced B6 CB17 mouse serum at 250 mg/kg, po BID administered as nanosuspension measured 24 hrs post-last dose; type: ADME, organism-based; details: read-out: Drug uptake
[2] = target: T1, Non-receptor tyrosine-protein kinase TYK2 (Homo sapiens, UniProt P29597); assay: Inhibition of TYK2 JH2 (unknown origin) by morrison titration assay; details: read-out: Ki(app)
[3] = Drug concentration in IL12/IL18-induced C57BL/6 mouse serum at 0.3 mg/kg, po pretreated for 1 hr followed by IL12 stimulation and subsequent IL18 addition and measured after 5 hrs; type: ADME, organism-based; details: read-out: Drug uptake
[4] = target: T1, Non-receptor tyrosine-protein kinase TYK2; assay: Inhibition of TYK2 JH2 domain in human whole blood assessed as inhibition of IFNalpha-induced STAT5 phosphorylation preincubated for 1 hr followed by IFNalpha stimulation and measured after 15 mins by fluorescence assay; type: tissue-based
[5] = target: Non-receptor tyrosine-protein kinase TYK2 (Mus musculus, UniProt Q9R117); assay: Inhibition of TYK2 JH2 domain in mouse whole blood assessed as inhibition of IFNalpha-induced STAT1 phosphorylation preincubated for 1 hr followed by IFNalpha stimulation and measured after 15 mins by fluorescence assay; type: tissue-based
Sequence of Non-receptor tyrosine-protein kinase TYK2 (Mus musculus, UniProt Q9R117) (Q9R117 whole entry, the tested form may be a part): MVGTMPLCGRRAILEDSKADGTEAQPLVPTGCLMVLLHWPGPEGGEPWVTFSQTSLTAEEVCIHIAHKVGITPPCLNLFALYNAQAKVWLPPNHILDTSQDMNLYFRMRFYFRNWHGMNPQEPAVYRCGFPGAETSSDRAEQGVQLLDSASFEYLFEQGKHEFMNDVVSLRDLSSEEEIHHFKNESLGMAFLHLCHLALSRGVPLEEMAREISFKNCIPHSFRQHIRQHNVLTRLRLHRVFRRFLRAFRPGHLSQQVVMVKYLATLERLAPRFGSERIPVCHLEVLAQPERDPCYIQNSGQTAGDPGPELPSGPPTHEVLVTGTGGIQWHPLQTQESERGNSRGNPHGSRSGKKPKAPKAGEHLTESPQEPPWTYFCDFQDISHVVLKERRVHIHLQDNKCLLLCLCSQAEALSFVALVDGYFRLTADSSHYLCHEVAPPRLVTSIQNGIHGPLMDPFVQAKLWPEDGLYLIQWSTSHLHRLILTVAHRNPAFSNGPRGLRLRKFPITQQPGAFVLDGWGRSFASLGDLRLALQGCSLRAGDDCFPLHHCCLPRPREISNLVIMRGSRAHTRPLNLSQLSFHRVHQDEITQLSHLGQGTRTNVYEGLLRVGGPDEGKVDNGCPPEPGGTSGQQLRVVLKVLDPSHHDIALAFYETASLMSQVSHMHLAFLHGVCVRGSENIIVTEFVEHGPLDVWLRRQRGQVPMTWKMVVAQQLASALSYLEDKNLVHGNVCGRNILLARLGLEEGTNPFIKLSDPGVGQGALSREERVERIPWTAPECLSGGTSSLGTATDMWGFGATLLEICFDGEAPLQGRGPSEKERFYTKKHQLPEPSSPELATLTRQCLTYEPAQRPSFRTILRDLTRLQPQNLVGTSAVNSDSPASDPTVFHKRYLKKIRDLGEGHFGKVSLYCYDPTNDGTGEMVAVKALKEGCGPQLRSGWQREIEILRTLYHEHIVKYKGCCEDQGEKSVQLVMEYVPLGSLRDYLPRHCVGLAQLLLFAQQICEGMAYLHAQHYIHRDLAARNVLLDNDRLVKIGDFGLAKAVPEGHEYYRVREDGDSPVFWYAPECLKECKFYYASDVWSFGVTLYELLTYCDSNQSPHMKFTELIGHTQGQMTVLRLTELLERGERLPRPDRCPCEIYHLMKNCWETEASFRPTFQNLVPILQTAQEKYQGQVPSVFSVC

[6] = system: Mus musculus; assay: Inhibition of IL12/IL18-induced IFNgamma production in C57BL/6 mouse at 3 mg/kg, po pretreated for 1 hr followed by IL12 stimulation and subsequent IL18 addition and measured after 3 hrs relative to control; type: functional; details: C57BL/6, po
[7] = target: T1, Non-receptor tyrosine-protein kinase TYK2; assay: Inhibition of fluorescein-labeled kinase tracer binding to His-TVMV-fused TYK2 JH2 domain (575 to 869 residues) (unknown origin) measured after 90 mins by HTRF assay
[8] = system: Mus musculus; assay: Inhibition of IL12/IL18-induced IFNgamma production in C57BL/6 mouse at 0.3 mg/kg, po pretreated for 1 hr followed by IL12 stimulation and subsequent IL18 addition and measured after 3 hrs relative to control; type: functional; details: C57BL/6, po
[9] = Ratio of drug concentration in IL12/IL18-induced C57BL/6 mouse serum at 1 mg/kg, po to IC50 for TYK2 JH2 domain in mouse whole blood; type: ADME, organism-based; details: in vivo
[10] = Half life in cynomolgus monkey liver microsomes; type: ADME, Macaca fascicularis, Microsome
[11] = AUClast in mouse at 10 mg/kg, po after 7 hrs; type: ADME, organism-based; parameters: time < 7 hr, dose 10 mg/kg, route oral; details: in vivo
[12] = Drug concentration in IL12/IL18-induced C57BL/6 mouse serum at 3 mg/kg, po pretreated for 1 hr followed by IL12 stimulation and subsequent IL18 addition and measured after 5 hrs; type: ADME, organism-based; details: read-out: Drug uptake
[13] = Partition coefficient, log P of compound by HPLC analysis; type: physicochemical; details: octanol/water
[14] = Drug concentration in IL12/IL18-induced C57BL/6 mouse serum at 10 mg/kg, po pretreated for 1 hr followed by IL12 stimulation and subsequent IL18 addition and measured after 5 hrs; type: ADME, organism-based; details: read-out: Drug uptake
[15] = Half life in dog liver microsomes; type: ADME, Canis lupus familiaris, Microsome
[16] = Half life in rat liver microsomes; type: ADME, Microsome
[17] = target: T1, Non-receptor tyrosine-protein kinase TYK2; assay: Inhibition of TYK2 JH1 domain (unknown origin)
[18] = Half life in human liver microsomes; type: ADME, Microsome
[19] = Efflux ratio of permeability in human Caco2; type: ADME, cell-based; details: Caco-2
[20] = Drug concentration in IL12/IL18-induced C57BL/6 mouse serum at 1 mg/kg, po pretreated for 1 hr followed by IL12 stimulation and subsequent IL18 addition and measured after 5 hrs; type: ADME, organism-based; details: read-out: Drug uptake
[21] = system: Mus musculus; assay: Inhibition of IL12/IL18-induced IFNgamma production in C57BL/6 mouse at 10 mg/kg, po pretreated for 1 hr followed by IL12 stimulation and subsequent IL18 addition and measured after 3 hrs relative to control; type: functional; details: C57BL/6, po
[22] = Terminal drug concentration in CD40-induced B6 CB17 mouse serum at 25 mg/kg, po BID administered as nanosuspension measured 24 hrs post-last dose; type: ADME, organism-based; details: read-out: Drug uptake
[23] = Drug metabolism in C57BL/6 mouse plasma assessed as amide formation at 0.3 to 10 mg/kg, po; type: ADME, organism-based; details: in vivo
[24] = Ratio of drug concentration in IL12/IL18-induced C57BL/6 mouse serum at 0.3 mg/kg, po to IC50 for TYK2 JH2 domain in mouse whole blood; type: ADME, organism-based; details: in vivo
[25] = Terminal drug concentration in CD40-induced B6 CB17 mouse serum at 80 mg/kg, po BID administered as nanosuspension measured 24 hrs post-last dose; type: ADME, organism-based; details: read-out: Drug uptake
[26] = target: Tyrosine-protein kinase JAK1 (Homo sapiens, UniProt P23458); assay: Inhibition of JAK1 JH1 domain (unknown origin)
Sequence of Tyrosine-protein kinase JAK1 (P23458 whole entry, the tested form may be a part): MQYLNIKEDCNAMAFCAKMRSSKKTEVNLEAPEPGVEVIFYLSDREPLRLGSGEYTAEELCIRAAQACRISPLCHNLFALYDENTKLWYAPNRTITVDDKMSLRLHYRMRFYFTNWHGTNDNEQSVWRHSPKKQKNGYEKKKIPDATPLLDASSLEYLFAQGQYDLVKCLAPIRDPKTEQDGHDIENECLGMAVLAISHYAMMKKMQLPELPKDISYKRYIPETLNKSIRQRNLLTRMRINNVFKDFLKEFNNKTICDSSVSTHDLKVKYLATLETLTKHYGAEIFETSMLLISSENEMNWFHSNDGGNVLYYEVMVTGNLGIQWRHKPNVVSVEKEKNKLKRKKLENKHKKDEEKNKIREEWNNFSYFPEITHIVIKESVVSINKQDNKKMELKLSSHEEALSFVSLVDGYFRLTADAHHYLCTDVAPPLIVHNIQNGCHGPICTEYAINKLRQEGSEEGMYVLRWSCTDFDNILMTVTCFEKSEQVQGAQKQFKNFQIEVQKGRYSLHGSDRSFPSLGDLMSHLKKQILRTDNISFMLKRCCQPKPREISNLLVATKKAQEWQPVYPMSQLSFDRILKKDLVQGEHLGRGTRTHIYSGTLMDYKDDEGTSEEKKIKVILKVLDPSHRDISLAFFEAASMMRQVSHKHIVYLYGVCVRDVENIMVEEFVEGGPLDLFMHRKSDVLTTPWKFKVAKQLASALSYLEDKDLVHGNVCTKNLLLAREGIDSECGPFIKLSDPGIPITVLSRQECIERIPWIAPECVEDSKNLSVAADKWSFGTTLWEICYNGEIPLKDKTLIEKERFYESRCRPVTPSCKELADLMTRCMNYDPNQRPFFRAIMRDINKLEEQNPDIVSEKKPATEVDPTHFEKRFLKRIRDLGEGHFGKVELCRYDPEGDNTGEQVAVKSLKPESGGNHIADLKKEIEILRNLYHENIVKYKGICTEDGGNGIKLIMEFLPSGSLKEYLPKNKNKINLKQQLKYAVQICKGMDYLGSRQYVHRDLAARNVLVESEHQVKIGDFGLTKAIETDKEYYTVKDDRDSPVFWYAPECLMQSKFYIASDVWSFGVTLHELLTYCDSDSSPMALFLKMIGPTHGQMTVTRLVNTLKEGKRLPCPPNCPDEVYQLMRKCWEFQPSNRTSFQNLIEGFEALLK

[27] = Cmax in mouse at 10 mg/kg, po after 7 hrs; type: ADME, organism-based; parameters: dose 10 mg/kg, route oral; details: in vivo
[28] = target: Tyrosine-protein kinase JAK2 (Homo sapiens, UniProt O60674); assay: Inhibition of JAK2 JH1 domain (unknown origin)
Sequence of Tyrosine-protein kinase JAK2 (O60674 whole entry, the tested form may be a part): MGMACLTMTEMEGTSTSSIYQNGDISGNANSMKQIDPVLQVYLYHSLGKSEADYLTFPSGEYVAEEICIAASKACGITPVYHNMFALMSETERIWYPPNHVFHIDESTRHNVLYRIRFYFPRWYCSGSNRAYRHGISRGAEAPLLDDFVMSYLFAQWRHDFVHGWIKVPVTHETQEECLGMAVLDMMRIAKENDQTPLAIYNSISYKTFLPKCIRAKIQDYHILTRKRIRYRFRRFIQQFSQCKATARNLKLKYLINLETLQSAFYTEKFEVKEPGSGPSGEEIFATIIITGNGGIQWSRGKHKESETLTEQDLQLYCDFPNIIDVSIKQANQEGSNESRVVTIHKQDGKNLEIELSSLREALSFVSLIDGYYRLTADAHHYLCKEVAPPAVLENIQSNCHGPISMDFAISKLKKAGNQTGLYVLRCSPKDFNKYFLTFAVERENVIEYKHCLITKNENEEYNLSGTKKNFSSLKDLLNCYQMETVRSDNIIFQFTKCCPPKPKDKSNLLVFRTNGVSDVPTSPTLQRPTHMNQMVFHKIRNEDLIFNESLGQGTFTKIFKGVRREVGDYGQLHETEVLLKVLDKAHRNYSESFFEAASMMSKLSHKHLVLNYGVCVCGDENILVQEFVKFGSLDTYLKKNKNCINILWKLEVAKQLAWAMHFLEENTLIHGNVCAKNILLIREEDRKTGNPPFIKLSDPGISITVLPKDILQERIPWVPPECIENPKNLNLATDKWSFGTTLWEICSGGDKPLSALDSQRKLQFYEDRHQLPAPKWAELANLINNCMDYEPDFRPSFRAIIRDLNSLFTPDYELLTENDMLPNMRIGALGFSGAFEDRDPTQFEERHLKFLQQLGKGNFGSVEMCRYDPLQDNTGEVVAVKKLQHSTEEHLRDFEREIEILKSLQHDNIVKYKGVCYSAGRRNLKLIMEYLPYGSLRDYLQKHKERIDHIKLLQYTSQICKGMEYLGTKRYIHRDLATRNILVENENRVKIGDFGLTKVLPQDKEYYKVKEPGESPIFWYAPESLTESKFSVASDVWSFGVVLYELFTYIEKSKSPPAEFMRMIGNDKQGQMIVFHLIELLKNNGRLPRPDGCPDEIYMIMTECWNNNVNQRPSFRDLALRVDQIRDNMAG

[29] = Half life in mouse liver microsomes; type: ADME, Microsome
[30] = Ratio of drug concentration in IL12/IL18-induced C57BL/6 mouse serum at 3 mg/kg, po to IC50 for TYK2 JH2 domain in mouse whole blood; type: ADME, organism-based; details: in vivo
[31] = system: Mus musculus; assay: Inhibition of IL12/IL18-induced IFNgamma production in C57BL/6 mouse at 1 mg/kg, po pretreated for 1 hr followed by IL12 stimulation and subsequent IL18 addition and measured after 3 hrs relative to control; type: functional; details: C57BL/6, po
[32] = Ratio of drug concentration in IL12/IL18-induced C57BL/6 mouse serum at 10 mg/kg, po to IC50 for TYK2 JH2 domain in mouse whole blood; type: ADME, organism-based; details: in vivo
[33] = Permeability across apical to basolateral side in human Caco2 cells; type: ADME, cell-based; details: Caco-2, read-out: permeability
[34] = target: JAK1/TYK2 (Homo sapiens, UniProt P23458+P29597); assay: Inhibition of TYK2/JAK1 in IFNalpha-stimulated human Kit225 cells by steady-glo luciferase assay
Sequence of JAK1/TYK2 (P23458 whole entry): as the sequence (P23458 whole entry, the tested form may be a part) above
Sequence of JAK1/TYK2 (P29597 whole entry): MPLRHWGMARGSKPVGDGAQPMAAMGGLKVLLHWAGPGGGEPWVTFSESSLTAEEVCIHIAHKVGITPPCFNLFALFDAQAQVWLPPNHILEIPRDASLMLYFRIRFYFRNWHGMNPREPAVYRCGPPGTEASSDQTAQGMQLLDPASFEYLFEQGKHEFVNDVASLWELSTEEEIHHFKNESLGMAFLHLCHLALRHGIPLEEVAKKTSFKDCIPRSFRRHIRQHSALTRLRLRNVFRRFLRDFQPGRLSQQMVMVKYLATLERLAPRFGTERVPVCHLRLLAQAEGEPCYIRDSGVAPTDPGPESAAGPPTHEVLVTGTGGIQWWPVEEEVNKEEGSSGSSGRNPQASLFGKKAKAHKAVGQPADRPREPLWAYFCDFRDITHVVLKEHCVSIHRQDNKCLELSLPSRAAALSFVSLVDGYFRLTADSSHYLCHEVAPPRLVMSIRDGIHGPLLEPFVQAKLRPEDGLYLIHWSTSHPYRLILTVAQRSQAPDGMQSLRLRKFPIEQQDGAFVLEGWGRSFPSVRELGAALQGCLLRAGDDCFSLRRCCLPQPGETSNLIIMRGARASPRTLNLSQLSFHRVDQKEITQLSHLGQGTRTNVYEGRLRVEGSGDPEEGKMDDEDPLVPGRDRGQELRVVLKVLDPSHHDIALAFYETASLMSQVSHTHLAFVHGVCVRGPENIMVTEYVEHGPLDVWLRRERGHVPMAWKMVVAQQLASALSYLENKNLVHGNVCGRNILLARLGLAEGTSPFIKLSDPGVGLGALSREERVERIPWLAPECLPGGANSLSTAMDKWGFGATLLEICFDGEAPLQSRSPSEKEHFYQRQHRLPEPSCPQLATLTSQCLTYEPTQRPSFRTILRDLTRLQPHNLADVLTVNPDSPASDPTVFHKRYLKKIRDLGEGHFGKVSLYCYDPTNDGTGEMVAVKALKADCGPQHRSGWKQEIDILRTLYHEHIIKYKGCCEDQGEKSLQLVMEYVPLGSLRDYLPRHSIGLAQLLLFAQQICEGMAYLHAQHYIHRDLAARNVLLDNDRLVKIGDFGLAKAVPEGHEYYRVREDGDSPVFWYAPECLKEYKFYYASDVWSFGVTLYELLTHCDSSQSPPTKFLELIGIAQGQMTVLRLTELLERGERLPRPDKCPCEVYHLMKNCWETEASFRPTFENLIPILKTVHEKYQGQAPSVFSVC

T1 sequence (P29597 whole entry): as above

SMILES: [2H]C([2H])([2H])NC(=O)c1nnc(Nc2ccccn2)cc1Nc1ccccc1S(C)(=O)=O
- concentration at 24 h [1]: 77 nM
- Ki [2]: 0.07 nM
- concentration at 5 h [3]: 24 nM
- IC50 [4]: 130 nM
- IC50 [5]: 120 nM
- inhibition in vivo at 3 mg/kg [6]: 77%
- IC50 [7]: 0.53 nM
- inhibition in vivo at 0.3 mg/kg [8]: 13%
- Ratio [9]: 0.5
- half-life [10]: 4 min
- AUC(0-t) at 7 h [11]: 24.3 µM·h
- concentration at 5 h [12]: 133 nM
- logP [13]: 2.45
- concentration at 5 h [14]: 503 nM
- half-life [15]: 19 min
- half-life [16]: 49 min
- IC50 [17]: > 50000 nM
- half-life [18]: 48 min
- efflux ratio [19]: 2.1
- concentration at 5 h [20]: 69 nM
- inhibition in vivo at 10 mg/kg [21]: 91%
- concentration at 24 h [22]: 12 nM
- Drug metabolism [23]: Metabolite_Notdetected
- Ratio [24]: 0.2
- concentration at 24 h [25]: 67 nM
- IC50 [26]: > 40000 nM
- Cmax [27]: 10500 nM
- IC50 [28]: > 50000 nM
- half-life [29]: 46 min
- Ratio [30]: 1
- inhibition in vivo at 1 mg/kg [31]: 56%
- Ratio [32]: 4
- Papp A→B [33]: 28 ×10⁻⁶ cm/s
- IC50 [34]: 0.53 nM
